Assay results published in US11512079B2, “Heterocycle substituted pyridine derivative antifungal agents” (Amplyx Pharmaceuticals, Inc., priority 2017, dated 2022).
In brackets after ≈: the same amount, converted by molar mass.

Tests used:
Format in all cases: cell-based
[1] = tested on: Aspergillus fumigatus MYA3626; assay: In vitro antifungal assay (Example IX), microdilution broth, MEC; conditions: minimum effective concentration (shortening of hyphae), 35° C., 40-48 h, RPMI1640
Summary of the method: (§1)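 Spore suspensions of A. fumigatus and R. pusillus adjusted to 1-2×10^4 spores/mL in RPMI1640 and exposed to compound dilutions prepared in DMSO, by broth microdilution. MEC taken as the lowest concentration shortening hyphae versus DMSO control wells, read as for echinocandins.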

[2] = tested on: Rhizomucor pusillus 46342; assay: as above; conditions: minimum effective concentration (shortening of hyphae), 35° C., 40-48 h, RPMI1640
Summary of the method: as §1

Candida albicans 90028 = assay: In vitro antifungal assay (Example IX), microdilution broth, MIC; conditions: minimum inhibitory concentration (≥50% inhibition), 35° C., 40-48 h, RPMI1640
Summary of the method: (§2)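 CLSI broth microdilution in RPMI1640 with 2.5×10^3 cells/mL and final compound concentrations of 2-0.0019 μg/mL (1% DMSO). C. albicans 90028 plates were incubated at 35° C. for 40-48 h and C. neoformans H99 for 72 h. MIC was read as minimum inhibitory concentration, verified at 600 nm.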

[3] = tested on: Cryptococcus neoformans H99; assay: as above; conditions: minimum inhibitory concentration (≥50% inhibition), 35° C., 72 h, RPMI1640
Summary of the method: as §2

Cryptococcus gattii = assay: as above; conditions: minimum inhibitory concentration (≥50% inhibition), 35° C., 72 h (Cryptococcus), RPMI1640
Method: Preparation of Fungal Suspension. C. albicans 90028 and C. neoformans H99 strains were streaked from frozen stocks at −80° C. onto Sabouraud Dextrose Agar (SDA) plates. These were allowed to grow for 24 h (C. albicans) and 48 h (C. neoformans) at 35° C. before using them in the assay. 5-6 individual colonies were picked and diluted into sterile water to obtain a fungal suspension. The cell density of the suspension was determined and the culture diluted with RPMI1640 medium to obtain a fungal suspension of 2.5×10^3 cells/mL. The suspension was used in the MIC measurement as described below.
Preparation of Compound Stocks and Intermediate Dilutions: The compounds were weighed and DMSO was added to prepare a 10 mg/mL stock. The solutions were mixed by vortexing and sonication at 37° C. for 5-10 mins. The resulting solutions were sterile filtered using a PTFE filter, and aliquoted (12 μL or as needed) and stored at −20° C. Intermediate compound dilutions were prepared in sterile polypropylene tubes in 100% DMSO. The compound stock solution was first diluted in DMSO to obtain a concentration of […] to 0.19 μg/mL.
MIC/MEC Measurement: 99 μL 1 of the fungal suspension in RPMI1640 prepared as above was added to each well of a 96-well round bottom assay plate. 1 μL of the intermediate compound dilutions (200-0.19 μg/mL) were added to wells of the plate. This led to a 100-fold dilution of the intermediate dilutions resulting in a final compound concentration of 2-0.0019 μg/mL in the plate. 1 μL of DMSO was added to “No drug” control wells. The solutions were mixed by shaking on a plate shaker for 10 mins and plates incubated at 35° C. for 40-48 h (C. albicans, A. fumigatus, R. pusillus) and 72 h (Cryptococcus). […] This was validated by thorough mixing and reading at 600 nm on a microplate reader. The minimum concentration that led to shortening of hyphae as compared to hyphal growth in DMSO control wells was determined as the minimum effective concentration (MEC) for A. fumigatus and R. pusillus (as read for echinocandins). The use of the MIC and MEC endpoints against yeasts and molds, respectively has been described by Pfaller M A, Duncanson F, Messer S A, Moet G J, Jones R N, Castanheira M. Antimicrob Agents Chemother. 2011. 55(11):5155-8. In vitro activity of a novel broad-spectrum antifungal, E1210, tested against Aspergillus spp. determined by CLSI and EUCAST broth microdilution methods. Results are shown in Table 2, and the letters indicate the following ranges in μg/mL: […]

Row | MIC (Candida albicans 90028) [µg/mL] | MIC [3] [µg/mL] | MIC (Cryptococcus gattii) [µg/mL] | Structure (SMILES) | minimal effective concentration [1] [µg/mL] | minimal effective concentration [2] [µg/mL]
1 | 0.1 to 1 (≈ 0.245 to 2.45 µM) | 0.1 to 1 (≈ 0.245 to 2.45 µM) | 0.1 to 1 (≈ 0.245 to 2.45 µM) | Nc1ncccc1-c1cc(Cc2ccc(OCc3ccc4ccccc4n3)cc2)no1 [compound 27, 3-(3-(4-(quinolin-2-ylmethoxy)benzyl)isoxazol-5-yl)pyridin-2-amine] | > 1 | > 1
2 | 0.1 to 1 (≈ 0.278 to 2.78 µM) | 0.1 to 1 (≈ 0.278 to 2.78 µM) | 0.1 to 1 (≈ 0.278 to 2.78 µM) | Nc1ncccc1-c1cc(Cc2ccc(OCc3ncccn3)cc2)no1 [compound 28, 3-(3-(4-(pyrimidin-2-ylmethoxy)benzyl)isoxazol-5-yl)pyridin-2-amine] | 0.1 to 1 | > 1
3 | 0.1 to 1 (≈ 0.244 to 2.44 µM) | > 1 | > 1 | Nc1ncccc1-c1cc(Cc2ccc(OCc3cnc4ccccc4n3)cc2)no1 [compound 30, 3-(3-(4-(quinoxalin-2-ylmethoxy)benzyl)isoxazol-5-yl)pyridin-2-amine] | > 1 | 0.1 to 1
4 | 0.01 to 0.1 (≈ 0.0266 to 0.266 µM) | 0.1 to 1 (≈ 0.266 to 2.66 µM) | 0.1 to 1 (≈ 0.266 to 2.66 µM) | Nc1ncccc1-c1cc(Cc2ccc(CNc3cccc(F)n3)cc2)no1 [compound 31, N-(4-((5-(2-aminopyridin-3-yl)isoxazol-3-yl)methyl)benzyl)-6-fluoropyridin-2-amine] | 0.01 to 0.1 | 0.1 to 1
5 | 0.01 to 0.1 (≈ 0.0279 to 0.279 µM) | 0.1 to 1 (≈ 0.279 to 2.79 µM) | 0.1 to 1 (≈ 0.279 to 2.79 µM) | Nc1ncccc1-c1cc(Cc2ccc(CNc3ncccn3)cc2)no1 [compound 32, N-(4-((5-(2-aminopyridin-3-yl)isoxazol-3-yl)methyl)benzyl)pyrimidin-2-amine] | 0.01 to 0.1 | 0.1 to 1
6 | 0.01 to 0.1 (≈ 0.0251 to 0.251 µM) | > 1 | 0.1 to 1 (≈ 0.251 to 2.51 µM) | Nc1ncccc1-c1cc(Cc2ccc(CNc3nc(Cl)cs3)cc2)no1 [compound 34, N-(4-((5-(2-aminopyridin-3-yl)isoxazol-3-yl)methyl)benzyl)-4-chlorothiazol-2-amine] | 0.1 to 1 | 0.1 to 1

Second part, the molecule before the results:

Row | Structure (SMILES) | MIC (Candida albicans 90028) [µg/mL] | MIC [3] [µg/mL] | MIC (Cryptococcus gattii) [µg/mL] | minimal effective concentration [1] [µg/mL] | minimal effective concentration [2] [µg/mL]
7 | Nc1ncccc1-c1cc(Cc2ccc(Cc3ccnc(F)c3)cc2)no1 [compound 19, 3-(3-(4-((2-fluoropyridin-4-yl)methyl)benzyl)isoxazol-5-yl)pyridin-2-amine] | 0.01 to 0.1 (≈ 0.0277 to 0.277 µM) | 0.01 to 0.1 (≈ 0.0277 to 0.277 µM) | 0.01 to 0.1 (≈ 0.0277 to 0.277 µM) | 0.01 to 0.1 | 0.1 to 1
8 | Nc1ncccc1-c1cc(Cc2ccc(Cc3ccnc(F)c3F)cc2)no1 [compound 20, 3-(3-(4-((2,3-difluoropyridin-4-yl)methyl)benzyl)isoxazol-5-yl)pyridin-2-amine] | 0.1 to 1 (≈ 0.264 to 2.64 µM) | 0.01 to 0.1 (≈ 0.0264 to 0.264 µM) | 0.01 to 0.1 (≈ 0.0264 to 0.264 µM) | 0.01 to 0.1 | 0.1 to 1
9 | Nc1ncccc1-c1cc(Cc2ccc(C(O)c3ccccc3)cc2)no1 (stereo not shown) [compound 22, (4-((5-(2-aminopyridin-3-yl)isoxazol-3-yl)methyl)phenyl) (phenyl)methanol] | 0.1 to 1 (≈ 0.28 to 2.8 µM) | 0.1 to 1 (≈ 0.28 to 2.8 µM) | 0.01 to 0.1 (≈ 0.028 to 0.28 µM) | 0.1 to 1 | > 1
10 | Nc1ncccc1-c1cc(Cc2ccc(COC3CCCCC3)cc2)no1 [compound 23, 3-(3-(4-((cyclohexyloxy)methyl)benzyl)isoxazol-5-yl)pyridin-2-amine] | 0.1 to 1 (≈ 0.275 to 2.75 µM) | 0.1 to 1 (≈ 0.275 to 2.75 µM) | 0.01 to 0.1 (≈ 0.0275 to 0.275 µM) | 0.1 to 1 | 0.1 to 1
11 | Cc1cc(COc2ccc(Cc3cc(-c4cccnc4N)on3)cc2)no1 [compound 26, 3-(3-(4-((5-methylisoxazol-3-yl)methoxy)benzyl)isoxazol-5-yl)pyridin-2-amine] | 0.1 to 1 (≈ 0.276 to 2.76 µM) | 0.1 to 1 (≈ 0.276 to 2.76 µM) | 0.1 to 1 (≈ 0.276 to 2.76 µM) | 0.01 to 0.1 | > 1
